Literature values in patent publication US11547674B2, “Protein-polymer hybrid biomaterials” (The Regents of the University of California, priority 2018, dated 2023).

Target: Bacillus stearothermophillus LDH (Geobacillus stearothermophilus, UniProt P00344)
Conditions: read-out: Km of oxamate for LDH

Chain of Bacillus stearothermophillus LDH (P00344 whole entry): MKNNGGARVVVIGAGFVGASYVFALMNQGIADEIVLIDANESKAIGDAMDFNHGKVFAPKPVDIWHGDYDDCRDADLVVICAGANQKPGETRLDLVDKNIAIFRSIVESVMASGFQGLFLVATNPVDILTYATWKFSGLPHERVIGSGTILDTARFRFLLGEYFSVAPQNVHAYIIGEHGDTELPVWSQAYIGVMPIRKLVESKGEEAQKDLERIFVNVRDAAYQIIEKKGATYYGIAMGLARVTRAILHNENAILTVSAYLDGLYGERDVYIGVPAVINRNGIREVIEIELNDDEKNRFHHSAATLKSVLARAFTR

In the case of `NC(=O)C(=O)O` [oxamate], the Km is given as 600 µM.
